According to patent publication US6551999B1, “Angiogenesis inhibitor” (Senju Pharmaceutical Co., Ltd., priority 1995, dated 2003):
Peptide text beside a SMILES is read from it. * marks the point of attachment. Tos = Cc1ccc(S(=O)(=O)*)cc1

target: T1, μ-calpain (Homo sapiens, UniProt P07384); experiment: μ-Calpain-inhibitory activity (casein substrate); type: biochemical; conditions: 60 minutes at 30° C., pH 7.4, 4 mM calcium chloride
T1 construct: purchased Nakalai Tesque
T1 sequence (P07384 1-714): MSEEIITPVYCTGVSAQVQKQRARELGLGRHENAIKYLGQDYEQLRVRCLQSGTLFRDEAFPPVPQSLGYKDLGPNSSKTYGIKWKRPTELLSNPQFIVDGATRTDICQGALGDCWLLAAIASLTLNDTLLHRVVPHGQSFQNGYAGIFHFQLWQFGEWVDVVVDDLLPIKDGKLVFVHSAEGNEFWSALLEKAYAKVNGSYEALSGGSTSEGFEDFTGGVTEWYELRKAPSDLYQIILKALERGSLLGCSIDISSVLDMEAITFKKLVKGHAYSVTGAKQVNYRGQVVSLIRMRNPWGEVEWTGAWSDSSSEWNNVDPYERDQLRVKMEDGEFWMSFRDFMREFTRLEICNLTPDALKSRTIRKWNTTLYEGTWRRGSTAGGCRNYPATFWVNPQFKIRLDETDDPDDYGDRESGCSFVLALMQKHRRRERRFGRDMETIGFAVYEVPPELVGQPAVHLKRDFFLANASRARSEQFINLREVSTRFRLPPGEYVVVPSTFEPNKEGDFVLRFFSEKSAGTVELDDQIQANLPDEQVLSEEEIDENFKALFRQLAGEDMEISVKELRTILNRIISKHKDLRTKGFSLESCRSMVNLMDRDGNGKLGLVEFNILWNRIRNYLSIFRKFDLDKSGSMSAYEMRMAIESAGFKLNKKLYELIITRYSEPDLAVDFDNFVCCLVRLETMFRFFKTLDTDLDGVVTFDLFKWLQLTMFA
T1 sequence (P04632 1-268 partner): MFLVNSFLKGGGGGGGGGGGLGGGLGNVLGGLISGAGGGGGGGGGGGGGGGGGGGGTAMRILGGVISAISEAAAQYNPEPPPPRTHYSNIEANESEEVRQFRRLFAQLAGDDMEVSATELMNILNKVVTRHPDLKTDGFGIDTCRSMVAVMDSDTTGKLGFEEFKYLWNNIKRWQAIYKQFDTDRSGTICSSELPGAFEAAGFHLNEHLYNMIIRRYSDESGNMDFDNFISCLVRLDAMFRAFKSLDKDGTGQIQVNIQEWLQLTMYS
Experimental: Thus, to a solution containing 0.5 mg/ml casein, 50 mM Tris-HCl (pH 7.4), 20 mM dithiothreitol, and 4 mM calcium chloride was added 2.5 μl of a dimethyl sulfoxide solution containing a varying concentration of the test drug as well as 0.03 unit of μcalpain to initiate the reaction. The final liquid volume was 250 μl. After 60 minutes of reaction at 30° C., 100 μl of the reaction mixture was transferred to another vessel, to which 50 μl of purified water and 100 μl of 50% Coumassie brilliant blue solution were added. […] As a control, 2.5 μl of dimethyl sulfoxide not containing the test drug was added and the mixture was treated in the same manner as above. […] Similarly, the value found by adding 0.2 mM EDTA in lieu of 4 mM aqueous calcium chloride solution was used as the blank value. […] [formula]

| Compound | IC50 |
| --- | --- |
| CC(C)C[C@H](NC(=O)[C@H]1O[C@@H]1C(=O)O)C(=O)N1CCN(c2ccccc2)CC1 [Compound 14, (2s,3s)-3-[[[[(1s)-1-[(4-phenyl-1-piperazinyl)carbonyl]-3-methyl]butyl]amino]carbonyl]oxiranecarboxylic acid] | 0.78 µM |
| CC(C)C[C@H](NC(=O)[C@H]1O[C@@H]1C(=O)O)C(=O)N1CCN(S(=O)(=O)N(C)C)CC1 [Compound 15, (2s,3s)-3-[[[[(1s)-1-[(4-dimethylsulfamoyl-1-piperazinyl)carbonyl]-3-methyl]butyl]amino]carbonyl]oxiranecarboxylic acid] | 1.1 µM |
| CC(C)C[C@H](NC(=O)[C@H]1O[C@@H]1C(=O)O)C(=O)N1CCN(c2cccc(Cl)c2)CC1 [Compound 18, (2s,3s)-3-[[[[(1s)-1-[[4-(3-chlorophenyl)-1-piperazinyl]carbonyl]-3-methyl]butyl]amino]carbonyl]oxiranecarboxylic acid] | 0.63 µM |
| CC(C)C[C@H](NC(=O)[C@H]1O[C@@H]1C(=O)O)C(=O)N1CCN(c2ccc(Cl)cc2)CC1 [Compound 19, (2s,3s)-3-[[[[(1s)-1-[[4-(4-chlorophenyl)-1-piperazinyl]carbonyl]-3-methyl]butyl]amino]carbonyl]oxiranecarboxylic acid] | 0.49 µM |
| CC(C)[C@H](NC(=O)[C@H]1O[C@@H]1C(=O)O)C(=O)N1CCN(c2ccccc2Cl)CC1 [Compound 21, (2s,3s)-3-[[[[(1s)-1-[[4-(2-chlorophenyl)-1-piperazinyl]carbonyl]-2-methyl]propyl]amino]carbonyl]oxiranecarboxylic acid] | 0.95 µM |
| C[C@H](NC(=O)[C@H]1O[C@@H]1C(=O)O)C(=O)N1CCN(c2ccccc2Cl)CC1 [Compound 23, (2s,3s)-3-[[[(1s)-1-[[4-(2-chlorophenyl)-1-piperazinyl]carbonyl]ethyl]amino]carbonyl]oxiranecarboxylic acid] | 5.1 µM |
| O=C(O)[C@H]1O[C@@H]1C(=O)NCCC(=O)N1CCN(c2ccccc2Cl)CC1 [Compound 25, (2s,3s)-3-[[[2-[[4-(2-chlorophenyl)-1-piperazinyl]carbonyl]ethyl]amino]carbonyl]oxiranecarboxylic acid] | 41 µM |
| O=C(O)[C@H]1O[C@@H]1C(=O)N1CCC[C@H]1C(=O)N1CCN(c2ccccc2Cl)CC1 [Compound 27, (2s,3s)-3-[[(2s)-2-[[4-(2-chloro-phenyl)-1-piperazinyl]carbonyl]-1-pyrrolidinyl]carbonyl]oxiranecarboxylic acid] | 2400 µM |
| CSCC[C@H](NC(=O)[C@H]1O[C@@H]1C(=O)O)C(=O)N1CCN(c2ccccc2Cl)CC1 [Compound 29, (2s,3s)-3-[[[[(1s)-1-[[4-(2-chlorophenyl)-1-piperazinyl]carbonyl]-3-methylthio]propyl]amino]carbonyl]oxiranecarboxylic acid] | 0.6 µM |
| NC(=O)CC[C@H](NC(=O)[C@H]1O[C@@H]1C(=O)O)C(=O)N1CCN(c2ccccc2Cl)CC1 [Compound 30, (2s,3s)-3-[[[[(1s)-1-[[4-(2-chlorophenyl)-1-piperazinyl]carbonyl]-3-carbamoyl]propyl]amino]carbonyl]oxiranecarboxylic acid] | 6 µM |
| O=C(O)[C@H]1O[C@@H]1C(=O)NC1(C(=O)N2CCN(c3ccc(F)cc3)CC2)CCCC1 [Compound 31, (2s,3s)-3-[[[(1s)-1-[[4-(4-fluorophenyl)-1-piperazinyl]carbonyl]-1-cyclopentyl]amino]carbonyl]oxiranecarboxylic acid] | 150 µM |
| Cc1ccc(S(=O)(=O)N2CCN(C(=O)[C@H](CC(C)C)NC(=O)[C@H]3O[C@@H]3C(=O)NO)CC2)cc1 [Compound 33, (2s,3s)-3-[[[[(1s)-1-[[4-(4-methylphenylsulfonyl)-1-piperazinyl]carbonyl]-3-methyl]butyl]amino]carbonyl]oxiranecarbohydroxamic acid] | 1.9 µM |
| CC(C)C[C@@H](C=O)NC(=O)[C@@H](NS(=O)(=O)c1ccc2ccccc2c1)C(C)C [Compound 34, N-(2-naphthalenesulfonyl)-L-valyl-L-leucinal] | 0.01 µM |
| CC(C)C[C@@H](C=O)NC(=O)[C@@H](NS(=O)(=O)c1ccc(Cl)cc1)C(C)C [Compound 36, N-(4-chlorophenylsulfonyl)-L-valyl-L-leucinal] | 0.031 µM |
| Cc1ccc(S(=O)(=O)N[C@H](C(=O)N[C@H](C=O)CC(C)C)C(C)C)cc1 [Compound 37, N-(4-methylphenylsulfonyl)-L-valyl-L-leucinal] (Tos-Val-Leu-aldehyde) | 0.028 µM |
| CC(C)C[C@@H](C=O)NC(=O)[C@@H](NS(=O)(=O)c1ccc2ccccc2c1)C(C)(C)C [Compound 38, N-(2-naphthalenesulfonyl)-L-tert-leucyl-L-leucinal] | 6.1 µM |
| CCCC[C@H](NS(=O)(=O)c1ccc(F)cc1)C(=O)N[C@H](C=O)CC(C)C [Compound 40, N-(4-fluorophenylsulfonyl)-L-norleucyl-L-leucinal] | 0.26 µM |
| CCC[C@H](NS(=O)(=O)c1ccc(F)cc1)C(=O)N[C@H](C=O)CC(C)C [Compound 41, N-(4-fluorophenylsulfonyl)-L-norvalyl-L-leucinal] | 0.13 µM |
| CC(C)(C)[C@H](NS(=O)(=O)c1ccc2ccccc2c1)C(=O)N[C@H](C=O)Cc1ccccc1 [Compound 42, N-(2-naphthalenesulfonyl)-L-tert-leucyl-L-phenylalaninal] | 3.2 µM |
| CC(C)[C@H](NS(=O)(=O)c1ccc(F)cc1)C(=O)N[C@H](C=O)Cc1ccccc1 [Compound 43, N-(4-fluorophenylsulfonyl)-L-valyl-L-phenylalaninal] | 0.027 µM |
| CC(C)[C@H](NS(=O)(=O)c1ccc2ccccc2c1)C(=O)N[C@H](C=O)Cc1ccccc1 [Compound 44, N-(2-naphthalenesulfonyl)-L-valyl-L-phenylalaninal] | 0.014 µM |
| CC(C)[C@H](NS(=O)(=O)c1ccc(Cl)cc1)C(=O)N[C@H](C=O)Cc1ccccc1 [Compound 45, N-(4-chlorophenylsulfonyl)-L-valyl-L-phenylalaninal] | 0.014 µM |
| Cc1ccc(S(=O)(=O)N[C@H](C(=O)N[C@H](C=O)Cc2ccccc2)C(C)C)cc1 [Compound 46, N-(4-methylphenylsulfonyl)-L-valyl-L-phenylalaninal] (Tos-Val-Phe-aldehyde) | 0.018 µM |
| O=C[C@H](Cc1ccccc1)NC(=O)C1(NS(=O)(=O)c2ccc3ccccc3c2)CCCCC1 [Compound 47] | 0.2 µM |
| CC(C)[C@H](NS(=O)(=O)c1ccc(Cl)cc1)C(=O)N[C@H](C=O)Cc1c[nH]c2ccccc12 [Compound 48, N-(4-chlorophenylsulfonyl)-L-valyl-L-tryptophanal] | 0.013 µM |
| CC(C)[C@H](NS(=O)(=O)c1ccc(F)cc1)C(=O)N[C@H](C=O)Cc1c[nH]c2ccccc12 [Compound 49, N-(4-fluorophenylsulfonyl)-L-valyl-L-tryptophanal] | 0.023 µM |
| O=C[C@H](Cc1c[nH]c2ccccc12)NC(=O)C1(NS(=O)(=O)c2ccc3ccccc3c2)CCCCC1 [Compound 50, 1-(2-naphthalenesulfonylamino)cyclohexanecarbonyl-L-tryptophanal] | 0.36 µM |

same assay, conditions: read-out: Calpain 50% inhibitory concentration (IC50); 60 minutes at 30° C., pH 7.4, 4 mM calcium chloride

| Compound | IC50 |
| --- | --- |
| CCOC(=O)[C@H]1O[C@@H]1C(=O)N[C@@H](CC(C)C)C(=O)N1CCN(c2ccc(F)cc2)CC1 [Compound 3, ethyl (2s,3s)-3-[[[[(1s)-1-[[4-(4-fluorophenyl)-1-piperazinyl]carbonyl]-3-methyl]butyl]amino]carbonyl]oxiranecarboxylate] | 47 µM |
| COc1ccc(N2CCN(C(=O)[C@H](CC(C)C)NC(=O)[C@H]3O[C@@H]3C(=O)O)CC2)cc1 [Compound 20, (2s,3s)-3-[[[[(1s)-1-[[4-(4-methoxyphenyl)-1-piperazinyl]carbonyl]-3-methyl]butyl]amino]carbonyl]oxiranecarboxylic acid] | 1.2 µM |
| CC(=O)NCSC[C@@H](NC(=O)[C@H]1O[C@@H]1C(=O)O)C(=O)N1CCN(c2ccccc2Cl)CC1 [Compound 28, (2s,3s)-3-[[[[(1s)1-[[4-(2-chlorophenyl)-1-piperazinyl]carbonyl]-2-acetylaminomethylthio]-ethyl]amino]carbonyl]oxiranecarboxylic acid] | 3.9 µM |
